This series can be described thus: Solubility screening by solvent addition technique (approximate solubility). Type of series: physicochemical. The settings on record: thermodynamic from solid, stirred at 50° C. Here is the method:
Approximate solubility values for amorphous Compound I dihydrochloride in 24 solvent systems was estimated by a solvent addition technique (Table 5).
The following procedure was used for the study: • Approximately 20 mg of material was weighed out into 24×2 mL push-cap vials. • Each solvent/solvent mixture was added to the appropriate vial in 5 volume aliquots (100 μL) until either no more solvent could be added or until the material dissolved. • In between additions, the experiments were stirred at 50° C. • If 2000 μL of solvent was added without dissolution of the material, solubility was calculated to be below this point. • Experiments were stirred at 50° C. for 1.5-5 h and then cooled at 0.1° C./min to 5° C. and stirred at 5° C. for about 10 h. • Solids (residual and recrystallized) were isolated by centrifugation (0.22 μm nylon filter) and analyzed by XRPD. • Anti-solvent addition (ASA) at 20° C. was carried out on solutions, followed by temperature cycling between 50° C.-5° C. (1 h hold, 0.1° C./min cool, 0.25° C./min ramp) for 20 h. • ASA at 5° C. was carried out on experiments which remained solutions, which were then stirred at 5° C. for 3 h. • Solids were isolated by centrifugation (0.22 μm nylon filter) and analyzed by XRPD; experiments which remained solutions were evaporated at ambient temperature (about 20° C.) under vacuum. • All isolated material was dried under vacuum at about 30° C. for about 19-23 h then re-analyzed by XRPD.
For comparison purposes, the approximate solubility of Compound I dihydrochloride Form 1 was estimated in water, using the same procedure, in solubility screening Experiment 25.

Counter-ions that a name gives are not always drawn.

Broadly, the solubility is the dissolved amount per volume that the medium holds. With `CC[C@H]1CN2CCc3cc(OC)c(OC)cc3[C@@H]2C[C@@H]1C[C@H]1NCCc2cc(OC)c(OC)cc21` [Amorphous Compound I dihydrochloride], the solubility (aqueous with cosolvent or surfactant or cyclodextrin, acetone:water 50:50 v/v) was over 200 mg/mL; the solubility (aqueous with cosolvent or surfactant or cyclodextrin, ethanol:water 25:75 v/v) is over 200 mg/mL; the solubility (aqueous with cosolvent or surfactant or cyclodextrin, methanol:water 50:50 v/v) was over 200 mg/mL; the solubility (organic solvent or mixture, 1-propanol) was over 200 mg/mL; the solubility (organic solvent or mixture, 2-methyl THF) is under 10 mg/mL; the solubility (organic solvent or mixture, 2-propanol) is over 200 mg/mL. In addition, the solubility reads like this: (organic solvent or mixture, 2-propanol:water 95:5 v/v) over 200 mg/mL; (organic solvent or mixture, N-methyl-2-pyrrolidone) over 200 mg/mL; (organic solvent or mixture, THF) under 10 mg/mL; (organic solvent or mixture, acetone) under 10 mg/mL; (organic solvent or mixture, anisole) under 10 mg/mL; (organic solvent or mixture, dimethylformamide) over 200 mg/mL. The solubility was over 200 mg/mL (organic solvent or mixture, dimethylsulfoxide); over 200 mg/mL (organic solvent or mixture, ethanol); over 200 mg/mL (organic solvent or mixture, ethanol:water 90:10 v/v); under 10 mg/mL (organic solvent or mixture, ethyl acetate); under 10 mg/mL (organic solvent or mixture, heptane); under 10 mg/mL (organic solvent or mixture, isopropyl acetate). In addition, the solubility was over 200 mg/mL (organic solvent or mixture, methanol); under 10 mg/mL (organic solvent or mixture, methylethyl ketone); under 10 mg/mL (organic solvent or mixture, methylisobutyl ketone); under 10 mg/mL (organic solvent or mixture, tBME); under 10 mg/mL (organic solvent or mixture, toluene); over 200 mg/mL (water).

(Values after patent US12528805B2, “Solid forms of emetine” (Acer Therapeutics, Inc., priority 2020, dated 2026).)
